Results on 31 molecules are retold here after patent US9051270B2, “Pyridone amides as modulators of sodium channels” (Vertex Pharmaceuticals Incorporated, priority 2013, dated 2015).

What is called IC50 is the concentration that gives 50% inhibition. A low value points to greater potency.

For the experiment, the target named is human Nav1.8 (Homo sapiens (Human), UniProt Q9Y5Y9). Put plainly: E-VIPR optical membrane potential assay with electrical stimulation. The experiment is classed as cell-based. As to conditions: HEK cells expressing human Nav1.8. The source says: Sodium channels are voltage-dependent proteins that can be activated by inducing membrane voltage changes by applying electric fields. […] The instrument comprises a microtiter plate handler, an optical system for exciting the coumarin dye while simultaneously recording the coumarin and oxonol emissions, a waveform generator, a current- or voltage-controlled amplifier, and a device for inserting electrodes in well. Under integrated computer control, this instrument passes user-programmed electrical stimulus protocols to cells within the wells of the microtiter plate.
Chain of human Nav1.8 (Q9Y5Y9 whole entry): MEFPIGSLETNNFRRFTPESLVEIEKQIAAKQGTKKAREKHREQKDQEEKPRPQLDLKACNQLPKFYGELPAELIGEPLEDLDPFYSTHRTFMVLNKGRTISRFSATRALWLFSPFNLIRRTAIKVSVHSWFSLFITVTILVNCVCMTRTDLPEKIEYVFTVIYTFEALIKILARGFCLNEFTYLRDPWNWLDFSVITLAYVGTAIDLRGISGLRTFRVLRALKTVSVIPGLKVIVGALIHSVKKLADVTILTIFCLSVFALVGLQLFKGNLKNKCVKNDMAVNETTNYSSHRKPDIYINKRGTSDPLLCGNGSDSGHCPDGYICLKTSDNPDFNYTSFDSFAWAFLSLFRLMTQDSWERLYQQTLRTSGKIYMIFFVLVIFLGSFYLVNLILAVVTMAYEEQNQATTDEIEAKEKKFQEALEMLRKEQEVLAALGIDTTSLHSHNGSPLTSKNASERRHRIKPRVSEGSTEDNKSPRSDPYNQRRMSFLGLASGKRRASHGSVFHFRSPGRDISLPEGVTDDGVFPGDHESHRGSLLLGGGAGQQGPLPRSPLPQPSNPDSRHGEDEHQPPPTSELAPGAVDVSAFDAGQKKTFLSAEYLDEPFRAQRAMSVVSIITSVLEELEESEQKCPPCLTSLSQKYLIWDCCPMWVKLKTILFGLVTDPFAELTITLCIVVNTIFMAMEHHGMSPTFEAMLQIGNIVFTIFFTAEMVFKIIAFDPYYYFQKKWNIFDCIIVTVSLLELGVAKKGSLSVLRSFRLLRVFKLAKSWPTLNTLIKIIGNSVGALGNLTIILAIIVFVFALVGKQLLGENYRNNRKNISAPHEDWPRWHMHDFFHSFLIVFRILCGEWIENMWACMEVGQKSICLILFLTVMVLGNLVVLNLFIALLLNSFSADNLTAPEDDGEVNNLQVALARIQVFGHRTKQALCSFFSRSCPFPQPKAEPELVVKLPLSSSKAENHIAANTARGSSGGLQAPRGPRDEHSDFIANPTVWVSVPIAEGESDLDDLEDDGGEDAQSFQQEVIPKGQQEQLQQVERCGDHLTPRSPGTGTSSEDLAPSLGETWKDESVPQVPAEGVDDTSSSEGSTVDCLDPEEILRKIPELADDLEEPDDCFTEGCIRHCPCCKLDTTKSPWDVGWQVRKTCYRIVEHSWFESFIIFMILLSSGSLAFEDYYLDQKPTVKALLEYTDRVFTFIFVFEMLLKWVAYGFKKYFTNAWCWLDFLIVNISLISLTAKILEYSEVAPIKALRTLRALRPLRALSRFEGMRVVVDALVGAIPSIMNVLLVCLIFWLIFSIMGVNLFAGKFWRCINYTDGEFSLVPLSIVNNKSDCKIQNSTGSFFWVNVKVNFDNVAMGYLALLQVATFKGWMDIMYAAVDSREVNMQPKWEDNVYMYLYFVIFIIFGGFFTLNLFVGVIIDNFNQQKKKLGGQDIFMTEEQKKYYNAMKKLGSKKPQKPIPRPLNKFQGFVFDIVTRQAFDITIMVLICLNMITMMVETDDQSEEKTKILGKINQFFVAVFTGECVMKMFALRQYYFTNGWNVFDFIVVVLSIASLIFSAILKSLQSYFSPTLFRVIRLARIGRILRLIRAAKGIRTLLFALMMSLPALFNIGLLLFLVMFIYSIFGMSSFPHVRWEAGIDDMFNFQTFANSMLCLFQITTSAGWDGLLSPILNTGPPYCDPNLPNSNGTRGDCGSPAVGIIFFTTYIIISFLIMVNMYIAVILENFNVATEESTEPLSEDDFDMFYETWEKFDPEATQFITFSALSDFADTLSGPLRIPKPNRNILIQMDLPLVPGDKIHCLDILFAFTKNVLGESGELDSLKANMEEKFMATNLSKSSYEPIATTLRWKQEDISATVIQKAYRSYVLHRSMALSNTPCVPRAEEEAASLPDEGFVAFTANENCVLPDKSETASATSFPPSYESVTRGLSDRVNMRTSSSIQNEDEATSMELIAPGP
24 hours before the assay on E-VIPR, HEK cells expressing human Nav1.8 were seeded in 384-well poly-lysine coated plates at 15,000-20,000 cells per well. […] Cells were grown in vented cap flasks, in 90% humidity and 5% CO2.
To make the solution added volume of 10% Pluronic F127 stock equal to volumes of CC2-DMPE+DiSBAC6(3). The order of preparation was first mixing Pluronic and CC2-DMPE, then adding DiSBAC6(3) while vortexing, then adding Bath1+β-Cyclodextrin.
1) Pre-spotted compounds (in neat DMSO) into compound plates. […] Final compound plate volume was 80 μL (80-fold intermediate dilution from 1 μL DMSO spot; 160-fold final dilution after transfer to cell plate).
2) Prepared Hexyl Dye Solution.
3) Prepared cell plates. On the day of the assay, medium was aspirated and cells were washed three times with 100 μL of Bath1 Solution, maintaining 25 μL residual volume in each well.
4) Dispensed 25 μL per well of Hexyl Dye Solution into cell plates. Incubated for 20-35 minutes at room temp or ambient conditions.
5) Dispensed 80 μL per well of Bath1 into compound plates. Acid Yellow-17 (1 mM) was added and Potassium Chloride was altered from 4.5 to 20 mM depending on the NaV subtype and assay sensitivity.
6) Washed cell plates three times with 100 μL per well of Bath1, leaving 25 μL of residual volume. Then transferred 25 uL per well from Compound Plates to Cell Plates. Incubated for 20-35 minutes at room temp/ambient condition.
7) Read Plate on E-VIPR. […] A pre-stimulus recording was performed for 0.5 seconds to obtain the un-stimulated intensities baseline. The stimulatory waveform was followed by 0.5 seconds of post-stimulation recording to examine the relaxation to the resting state.
Data was analyzed and reported as normalized ratios of emission intensities measured in the 460 nm and 580 nm channels. The response as a function of time was reported as the ratios obtained using the following formula: […]
The data was further reduced by calculating the initial (Ri) and final (Rf) ratios. These were the average ratio values during part or all of the pre-stimulation period, and during sample points during the stimulation period. The response to the stimulus R=Rf/Ri was then calculated and reported as a function of time.
Control responses were obtained by performing assays in the presence of a compound with the desired properties (positive control), such as tetracaine, and in the absence of pharmacological agents (negative control). Responses to the negative (N) and positive (P) controls were calculated as above. The compound antagonist activity A is defined as:
[formula] where R is the ratio response of the test compound
For `O=C(Nc1cc[nH]c(=O)c1)c1cc(C(F)(F)F)ccc1Oc1ccc(OC(F)F)cc1` [Compound 73, 2-(4-(difluoromethoxy)phenoxy)-N-(2-oxo-1,2-dihydropyridin-4-yl)-5-(trifluoromethyl)benzamide], half-maximal inhibition (IC50) was put at 35 nM. This lies in the double-digit nanomolar range. The figure for `COc1ccc(Oc2cc(C(F)(F)F)ccc2C(=O)Nc2cc[nH]c(=O)c2)c(Cl)c1F` [Compound 110, 2-(2-chloro-3-fluoro-4-methoxyphenoxy)-N-(2-oxo-1,2-dihydropyridin-4-yl)-4-(trifluoromethyl)benzamide] is 890 nM; for `O=C(Nc1cc[nH]c(=O)c1)c1cc(C(F)(F)F)ccc1Oc1ccc(C(F)(F)F)cc1` [Compound 74, N-(2-oxo-1,2-dihydropyridin-4-yl)-5-(trifluoromethyl)-2-(4-(trifluoromethyl)phenoxy)benzamide] it is 5180 nM; for `Cc1cc(F)ccc1Oc1ccc(OC(F)(F)F)cc1C(=O)Nc1cc[nH]c(=O)c1` [Compound 40, 2-(4-fluoro-2-methylphenoxy)-N-(2-oxo-1,2-dihydropyridin-4-yl)-5-(trifluoromethoxy)benzamide] it is 40 nM. The value for `O=C(Nc1cc[nH]c(=O)c1)c1ccc(Cl)cc1OCCCC(F)(F)F` [Compound 129, 4-chloro-N-(2-oxo-1,2-dihydropyridin-4-yl)-2-(4,4,4-trifluorobutoxy)benzamide] was 940 nM. The figure for `COc1ccc(Oc2ccc(C(F)(F)F)cc2C(=O)Nc2cc[nH]c(=O)c2)cc1F` [Compound 59, 2-(3-fluoro-4-methoxyphenoxy)-N-(2-oxo-1,2-dihydropyridin-4-yl)-5-(trifluoromethyl)benzamide] is 32 nM; for `CC(C)(C)c1ccc(C(=O)Nc2cc[nH]c(=O)c2)c(Oc2ccc(C(F)(F)F)nc2)c1` [Compound 141, 4-(tert-butyl)-N-(2-oxo-1,2-dihydropyridin-4-yl)-2-((6-(trifluoromethyl)pyridin-3-yl)oxy)benzamide] it is 78 nM.

The molecule `O=C(Nc1cc[nH]c(=O)c1)c1cc(OC(F)(F)F)ccc1Oc1ccccc1` [Compound 41, N-(2-oxo-1,2-dihydropyridin-4-yl)-2-phenoxy-5-(trifluoromethoxy)benzamide] registered an IC50 of 260 nM. For `O=C(Nc1ccc(=O)[nH]c1)c1cc(C(F)(F)F)ccc1Oc1ccc(F)cc1` [Compound 4, 2-(4-fluorophenoxy)-N-(6-oxo-1,6-dihydropyridin-3-yl)-5-(trifluoromethyl)benzamide], the midpoint of inhibition, the IC50, lay at 350 nM. The value for `COc1cc(F)ccc1Oc1ccc(OC(F)(F)F)cc1C(=O)Nc1cc[nH]c(=O)c1` [Compound 42, 2-(4-fluoro-2-methoxyphenoxy)-N-(2-oxo-1,2-dihydropyridin-4-yl)-5-(trifluoromethoxy)benzamide] was 68 nM.

The molecule `Cc1ccc(Oc2ccc(C(F)(F)F)cc2C(=O)Nc2cc[nH]c(=O)c2)cc1` [Compound 27, N-(2-oxo-1,2-dihydropyridin-4-yl)-2-(p-tolyloxy)-5-(trifluoromethyl)benzamide] yielded an IC50 of 340 nM. The value for `Cc1cc(C)c(C)c(Oc2ccc(C(F)(F)F)cc2C(=O)Nc2cc[nH]c(=O)c2)c1` [Compound 91, N-(2-oxo-1,2-dihydropyridin-4-yl)-5-(trifluoromethyl)-2-(2,3,5-trimethylphenoxy)benzamide] was 420 nM. The figure for `CC1(C)CC1COc1ccc(OC(F)(F)F)cc1C(=O)Nc1cc[nH]c(=O)c1` (stereo not shown) [Compound 140, 2-((2,2-dimethylcyclopropyl)methoxy)-N-(2-oxo-1,2-dihydropyridin-4-yl)-5-(trifluoromethoxy)benzamide] is 15000 nM; for `Cc1cc(C)c(Oc2ccc(F)cc2C(=O)Nc2cc[nH]c(=O)c2)cc1C` [Compound 105, 5-fluoro-N-(2-oxo-1,2-dihydropyridin-4-yl)-2-(2,4,5-trimethylphenoxy)benzamide] it is 3550 nM.

The molecule `COCCc1ccc(Oc2ccc(F)cc2C(=O)Nc2cc[nH]c(=O)c2)cc1` [Compound 102, 5-fluoro-2-(4-(2-methoxyethyl)phenoxy)-N-(2-oxo-1,2-dihydropyridin-4-yl)benzamide] returned an IC50 of 17100 nM. The figure for `O=C(Nc1cc[nH]c(=O)c1)c1ccc(C(F)(F)F)cc1OC1CCC1` [Compound 122, 2-cyclobutoxy-N-(2-oxo-1,2-dihydropyridin-4-yl)-4-(trifluoromethyl)benzamide] is 4200 nM. With `CCOc1ccc(Oc2ccc(F)cc2C(=O)Nc2cc[nH]c(=O)c2)cc1` [Compound 98, 2-(4-ethoxyphenoxy)-5-fluoro-N-(2-oxo-1,2-dihydropyridin-4-yl)benzamide], half-maximal inhibition (IC50) required 300 nM.

`O=C(Nc1cc[nH]c(=O)c1)c1cc(F)ccc1Oc1ccccc1` [Compound 95, 5-fluoro-N-(2-oxo-1,2-dihydropyridin-4-yl)-2-phenoxybenzamide]: half-maximal inhibition (IC50) was put at 3450 nM. The value for `COc1c(F)cccc1Oc1ccc(C(F)(F)F)cc1C(=O)Nc1cc[nH]c(=O)c1` [Compound 54, 2-(3-fluoro-2-methoxyphenoxy)-N-(2-oxo-1,2-dihydropyridin-4-yl)-5-(trifluoromethyl)benzamide] was 30 nM; that for `Cc1ccccc1Oc1cc(C(F)(F)F)ccc1C(=O)Nc1cc[nH]c(=O)c1` [Compound 11, N-(2-oxo-1,2-dihydropyridin-4-yl)-2-(o-tolyloxy)-4-(trifluoromethyl)benzamide] was 56 nM; that for `Cc1cc(F)ccc1Oc1cc(C(F)(F)C(F)(F)F)ccc1C(=O)Nc1cc[nH]c(=O)c1` [Compound 112, 2-(4-fluoro-2-methylphenoxy)-N-(2-oxo-1,2-dihydropyridin-4-yl)-4-(perfluoroethyl)benzamide] was 16 nM. The figure for `CC(C)CCOc1cc(C(F)(F)F)ccc1C(=O)Nc1cc[nH]c(=O)c1` [Compound 116, 2-(isopentyloxy)-N-(2-oxo-1,2-dihydropyridin-4-yl)-4-(trifluoromethyl)benzamide] is 488 nM.

Molecule `CC1(COc2cc(C(F)(F)F)ccc2C(=O)Nc2cc[nH]c(=O)c2)CC1` [Compound 119] came in with a concentration for half-maximal inhibition (IC50) of 14000 nM. The value for `O=C(Nc1cc[nH]c(=O)c1)c1ccc(Cl)cc1Oc1ccc(C(F)(F)F)nc1` [Compound 143, 4-chloro-N-(2-oxo-1,2-dihydropyridin-4-yl)-2-((6-(trifluoromethyl)pyridin-3-yl)oxy)benzamide] was 3350 nM; that for `O=C(Nc1cc[nH]c(=O)c1)c1cc(F)ccc1Oc1ccc(C2CC2)cc1` [Compound 96, 2-(4-cyclopropylphenoxy)-5-fluoro-N-(2-oxo-1,2-dihydropyridin-4-yl)benzamide] was 400 nM.

For `Cc1cc(C)c(C)c(Oc2ccc(F)cc2C(=O)Nc2cc[nH]c(=O)c2)c1` [Compound 94, 5-fluoro-N-(2-oxo-1,2-dihydropyridin-4-yl)-2-(2,3,5-trimethylphenoxy)benzamide], 1400 nM corresponded to half-maximal inhibition (IC50).

In turn, `CC1(C)CC1COc1cc(C(F)(F)F)ccc1C(=O)Nc1cc[nH]c(=O)c1` (stereo not shown) [Compound 124, 2-((2,2-dimethylcyclopropyl)methoxy)-N-(2-oxo-1,2-dihydropyridin-4-yl)-4-(trifluoromethyl)benzamide] came in with an IC50 of 485 nM. The value for `Cc1ccc(Oc2ccc(C(F)(F)F)cc2C(=O)Nc2cc[nH]c(=O)c2)c(F)c1F` [Compound 92, 2-(2,3-difluoro-4-methylphenoxy)-N-(2-oxo-1,2-dihydropyridin-4-yl)-5-(trifluoromethyl)benzamide] was 135 nM; that for `O=C(Nc1cc[nH]c(=O)c1)c1cc(C(F)(F)F)ccc1OCC1CCCC1` [Compound 130, 2-(cyclopentylmethoxy)-N-(2-oxo-1,2-dihydropyridin-4-yl)-5-(trifluoromethyl)benzamide] was 5100 nM.

Take `Cc1ccc(Oc2ccc(OC(F)(F)F)cc2C(=O)Nc2cc[nH]c(=O)c2)cc1` [Compound 35, N-(2-oxo-1,2-dihydropyridin-4-yl)-2-(p-tolyloxy)-5-(trifluoromethoxy)benzamide]: the IC50 was found to be 470 nM. The figure for `O=C(Nc1cc[nH]c(=O)c1)c1cc(C(F)(F)F)ccc1Oc1ccccc1Cl` [Compound 65, 2-(2-chlorophenoxy)-N-(2-oxo-1,2-dihydropyridin-4-yl)-5-(trifluoromethyl)benzamide] is 107 nM.
